Columns and labels:
JB6 = assay: Cell proliferation inhibition, ALCL line JB6; type: cell-based; conditions: Example 4, most sensitive cell lines, read-out: Proliferation IC50 JB6
From the text: Cell proliferation inhibition assays were run for compound (II) with the five target NPM-ALK-dependent ALCL cell lines (Karpas 299, SuDHL-1, JB6, SupM2, UConn) and 12 unrelated cell lines (HEK293, CHO-K1, MCF7, HepG2, H292, H520, H1581, H596, H522, CHA-GO-K1, UMC-11, SK-MES1). […] The pronounced target cell-killing effect is also observed (molecular mechanisms to be determined).

Karpas299 = assay: Cell proliferation inhibition, ALCL line Karpas299; type: cell-based; conditions: Homo sapiens, KARPAS-299; Example 4, most sensitive cell lines; read-out: Proliferation IC50 Karpas299
Summary of the method: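 NPM-ALK-positive Karpas-299 cells (2×10^4 per well) were treated with compound at final concentrations of 25 to 0.78125 μM, with DMSO-only controls. Proliferation and viability were read colorimetrically by XTT reduction to formazan.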

Cc1ccc(F)cc1C[C@H](C)Nc1cc[nH]c(=O)c1-c1nc2cc3c(cc2[nH]1)C(=O)N(CCN1CCCC1)C3 [compound (II)] gave an IC50 (JB6) of 5 to 10 nM and an IC50 (Karpas299) of 5 to 10 nM.
